From US20100137266A1, “TREATMENT OF INSULIN RESISTANCE AND DISORDERS ASSOCIATED THEREWITH” (UNIVERSITETET I OSLO, priority 2006, published 2010)

Assay: Stability in bovine plasma
Format: in vitro ADME
Conditions: 300 μM in citrated bovine plasma, 37° C., 24 h; HPLC detection at 210 nm
Description: A stock solution of 22(S)-hydroxycholesterol diglutarate was prepared by adding 50 mg of the compound to a 50 ml volumetric flask, followed by 0.5 ml DMSO and deionised water to 50 ml, giving a final concentration of 1.0 mg/ml. The plasma solution was prepared by adding 0.38 ml of the 22(S)-hydroxycholesterol diglutarate stock solution to 1.62 ml of citrated bovine plasma, giving a final concentration of 300 μM. The citrated bovine plasma was incubated at 37° C. for 24 h. Proteins were discarded from the samples by centrifugal filtration before 50 μl volume of the filtrate was injected with an autosampler onto an analytical column (C18 reverse phase system) The mobile phase consisted of a gradient composed of water and acetonitrile (20→50% from 0 to 10 min, the mobile phase increased from 0.5 ml/min→1.0 ml/min in 10 minutes). Eluted compounds were detected at 210 nm.

CC(C)CCC(OC(=O)CCCC(=O)O)[C@@H](C)C1CCC2C3CC=C4CC(OC(=O)CCCC(=O)O)CCC4(C)C3CCC21C (stereo partly drawn) [22(S)-hydroxycholesterol diglutarate, 22(S)-Hydroxycholesterol Diglutarate]
detection of compound after incubation in plasma: not possible to detect
